From patent publication US9073821B2, “Hydroxamic acid derivative” (priority 2010, dated 2015)
In brackets after ≈: the same amount, converted by molar mass. Read-outs that look alike come from different tables or passages of the source.

Experiments:
[1] = system: Pseudomonas aeruginosa strain TS88 (clinical isolate); test: Antimicrobial activity, MIC by broth microdilution; format: cell-based; settings: Table 4, 35° C., 18 hours, read-out: Pseudomonas aeruginosa TS88 strain MIC
E. coli strain ATCC25922 = test: Antimicrobial activity, MIC by broth microdilution; format: cell-based; settings: Escherichia coli, Table 4, 35° C., 18 hours, read-out: E. coli ATCC 25922 strain MIC
[2] = system: Klebsiella pneumoniae strain ATCC13883; test: Antimicrobial activity, MIC by broth microdilution; format: cell-based; settings: Table 4, 35° C., 18 hours, read-out: Klebsiella pneumoniae ATCC 13883 strain MIC
E. coli LpxC enzyme = E. coli LpxC enzyme (Escherichia coli (strain K12), UniProt P0A725); test: Inhibitory activity on E. coli LpxC enzyme (fluorescamine assay); format: biochemical; settings: Table 4
Description: Test 2: Evaluation of the Inhibitory Activity on E. coli LpxC Enzyme
An inhibition curve was constructed for each test compound by performing the aforementioned reaction at varying concentrations of the test compound. From this inhibition curve, the concentration of the test compound at which the formation of the reaction product was suppressed by 50% was determined as the IC50 of the test compound, which was an index for the inhibitory activity on E. coli LpxC enzyme.

[3] = target: Pseudomonas aeruginosa LpxC enzyme (Pseudomonas aeruginosa (strain ATCC 15692 / DSM 22644 / CIP 104116 / JCM 14847 / LMG 12228 / 1C / PRS 101 / PAO1), UniProt P47205); test: biochemical; format: biochemical
[4] = Table 4, read-out: Pseudomonas aeruginosa LpxC IC50
[5] = inhibitory activity on Pseudomonas aeruginosa LpxC enzyme, class symbols A/B/C, read-out: Enzyme inhibitory activity
[6] = class symbols A/B/C by IC50, Table 3, read-out: Enzyme inhibitory activity (inhibitory activity on Pseudomonas aeruginosa LpxC enzyme)

Sequence of E. coli LpxC enzyme (P0A725 whole entry): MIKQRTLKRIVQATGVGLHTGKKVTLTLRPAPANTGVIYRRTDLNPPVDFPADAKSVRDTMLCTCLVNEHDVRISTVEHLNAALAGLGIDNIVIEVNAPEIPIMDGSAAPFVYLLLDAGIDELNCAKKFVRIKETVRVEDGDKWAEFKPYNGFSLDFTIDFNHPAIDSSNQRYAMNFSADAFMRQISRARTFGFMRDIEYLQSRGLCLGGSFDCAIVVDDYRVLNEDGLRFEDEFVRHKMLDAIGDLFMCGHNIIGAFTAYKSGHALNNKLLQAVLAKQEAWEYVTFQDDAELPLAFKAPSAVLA

Compound | MIC [1] [µg/mL] | MIC (E. coli strain ATCC25922) [µg/mL] | MIC [2] [µg/mL] | IC50 (E. coli LpxC enzyme) [nM] | IC50 [3, 4] [nM] | IC50 [3, 5] [nM] | IC50 [3, 6] [nM]
CNC(=O)[C@@](C)(C(=O)NO)N(C)C(=O)c1ccc(CCc2ccc(CN3CCOCC3)cc2)cc1 [Compound 425, (2S)-N-hydroxy-N′,2-dimethyl-2-{methyl[(4-{2-[4-(morpholin-4-ylmethyl)phenyl]ethyl}phenyl)carbonyl]amino}propanediamide] | 8 (≈ 16.6 µM) | 2 (≈ 4.14 µM) | 8 (≈ 16.6 µM) | 121 | 5.1 | < 10 | 
CNC(=O)[C@@](C)(C(=O)NO)N(C)C(=O)c1ccc(C#Cc2ccc(CNC3COC3)cc2)cc1 [Compound 396, (2S)-N-hydroxy-N′,2-dimethyl-2-(methyl{[4-({4-[(oxetan-3-ylamino)methyl]phenyl}ethynyl)phenyl]carbonyl}amino)propanediamide] | 2 (≈ 4.31 µM) | 0.5 (≈ 1.08 µM) | 2 (≈ 4.31 µM) | 46 | 3.1 | < 10 | 
CNC(=O)C(C(=O)NO)N(C)C(=O)c1ccc(C#Cc2ccc(CN3CCCOCC3)cc2)cc1 (stereo not drawn) [Compound 168, N-hydroxy-N′-methyl-2-[methyl(4-{[4-(1,4-oxazepan-4-ylmethyl)phenyl]ethynyl}benzoyl)amino]propanediamide] | 0.5 (≈ 1.04 µM) | 0.5 (≈ 1.04 µM) | 2 (≈ 4.18 µM) | 119 | 4.2 | < 10 | 
CCOC1CN(Cc2ccc(C#Cc3ccc(C(=O)N(C)[C@@](C)(C(=O)NC)C(=O)NO)cc3)cc2)C1 [Compound 557, (2S)-2-[{[4-({4-[(3-ethoxyazetidin-1-yl)methyl]phenyl}ethynyl)phenyl]carbonyl}(methyl)amino]-N-hydroxy-N′,2-dimethylpropanediamide] | 0.5 (≈ 1.02 µM) | 0.25 (≈ 0.508 µM) | 1 (≈ 2.03 µM) | 108 | 2.3 |  | < 10
CCOc1ccc(-c2ccc(C(=O)N(C)C(C(=O)NC)C(=O)NO)cc2)cc1 (stereo not drawn) [Compound 211, 2-{[(4′-ethoxybiphenyl-4-yl)carbonyl](methyl)amino}-N-hydroxy-N′-methylpropanediamide] | 0.5 (≈ 1.3 µM) | 1 (≈ 2.59 µM) | 8 (≈ 20.8 µM) | 109 | 3.1 | < 10 | 
CNC(=O)[C@@](C)(C(=O)NO)N(C)C(=O)c1ccc(C#Cc2ccc(CN3CCCOCC3)cc2)cc1 [Compound 376, (2S)-N-hydroxy-N′,2-dimethyl-2-[methyl(4-{[4-(1,4-oxazepan-4-ylmethyl)phenyl]ethynyl}benzoyl)amino]propanediamide] | 0.5 (≈ 1.02 µM) | 0.25 (≈ 0.508 µM) | 1 (≈ 2.03 µM) | 129 | 2 | < 10 | 
CNC(=O)C(C(=O)NO)N(C)C(=O)c1ccc(C#C/C=C/c2ccc(CNC3CC3)cc2)cc1 (stereo not drawn) [Compound 481, 2-[({4-[(3E)-4-{4-[(cyclopropylamino)methyl]phenyl}but-3-en-1-yn-1-yl]phenyl}carbonyl)(methyl)amino]-N-hydroxy-N′-methylpropanediamide] | 1 (≈ 2.17 µM) | 0.25 (≈ 0.543 µM) | 2 (≈ 4.34 µM) | 78 | 9.1 | < 10 | 
CNC(=O)[C@@](C)(C(=O)NO)N(C)C(=O)c1ccc(/C=C/c2ccc(CN3CCOCC3)cc2)cc1 [Compound 434, (2S)-N-hydroxy-N′,2-dimethyl-2-{methyl[(4-{(E)-2-[4-(morpholin-4-ylmethyl)phenyl]ethenyl}phenyl)carbonyl]amino}propanediamide] | 1 (≈ 2.08 µM) | 0.25 (≈ 0.52 µM) | 1 (≈ 2.08 µM) | 55 | 2.8 | < 10 | 
CNC(=O)[C@@](C)(C(=O)NO)N(C)C(=O)c1ccc(C#Cc2coc(CNC3CC3)c2)cc1 [Compound 585, (2S)-2-[{[4-({5-[(cyclopropylamino)methyl]furan-3-yl}ethynyl)phenyl]carbonyl}(methyl)amino]-N-hydroxy-N′,2-dimethylpropanediamide] | 0.5 (≈ 1.14 µM) | 0.5 (≈ 1.14 µM) | 1 (≈ 2.28 µM) | 88 | 3.4 |  | < 10
